How the values were obtained:
Akt (Ser473) = test: Western blot of Akt phosphorylation in H1703 cells; type: cell-based, human; conditions: for phosphorylation of Akt at Ser473: treated for 1 hr, western blot (FIG. 5B)
Experimental: (§1) We dissolved drugs (Iressa and Gleevec) in DMSO to yield 10 mM stock solution and stored at −20° C.

PDGFRα = biological target: T1, PDGFRα (Homo sapiens, UniProt P16234); test: Western blot of PDGFRα phosphorylation in H1703 cells; type: cell-based
T1 construct: PDGFRα expression is highly restricted to H1703 cell line; endogenous in cells; host or cells: H1703 human NSCLC cell line (ATCC)
T1 sequence (P16234 24-1089): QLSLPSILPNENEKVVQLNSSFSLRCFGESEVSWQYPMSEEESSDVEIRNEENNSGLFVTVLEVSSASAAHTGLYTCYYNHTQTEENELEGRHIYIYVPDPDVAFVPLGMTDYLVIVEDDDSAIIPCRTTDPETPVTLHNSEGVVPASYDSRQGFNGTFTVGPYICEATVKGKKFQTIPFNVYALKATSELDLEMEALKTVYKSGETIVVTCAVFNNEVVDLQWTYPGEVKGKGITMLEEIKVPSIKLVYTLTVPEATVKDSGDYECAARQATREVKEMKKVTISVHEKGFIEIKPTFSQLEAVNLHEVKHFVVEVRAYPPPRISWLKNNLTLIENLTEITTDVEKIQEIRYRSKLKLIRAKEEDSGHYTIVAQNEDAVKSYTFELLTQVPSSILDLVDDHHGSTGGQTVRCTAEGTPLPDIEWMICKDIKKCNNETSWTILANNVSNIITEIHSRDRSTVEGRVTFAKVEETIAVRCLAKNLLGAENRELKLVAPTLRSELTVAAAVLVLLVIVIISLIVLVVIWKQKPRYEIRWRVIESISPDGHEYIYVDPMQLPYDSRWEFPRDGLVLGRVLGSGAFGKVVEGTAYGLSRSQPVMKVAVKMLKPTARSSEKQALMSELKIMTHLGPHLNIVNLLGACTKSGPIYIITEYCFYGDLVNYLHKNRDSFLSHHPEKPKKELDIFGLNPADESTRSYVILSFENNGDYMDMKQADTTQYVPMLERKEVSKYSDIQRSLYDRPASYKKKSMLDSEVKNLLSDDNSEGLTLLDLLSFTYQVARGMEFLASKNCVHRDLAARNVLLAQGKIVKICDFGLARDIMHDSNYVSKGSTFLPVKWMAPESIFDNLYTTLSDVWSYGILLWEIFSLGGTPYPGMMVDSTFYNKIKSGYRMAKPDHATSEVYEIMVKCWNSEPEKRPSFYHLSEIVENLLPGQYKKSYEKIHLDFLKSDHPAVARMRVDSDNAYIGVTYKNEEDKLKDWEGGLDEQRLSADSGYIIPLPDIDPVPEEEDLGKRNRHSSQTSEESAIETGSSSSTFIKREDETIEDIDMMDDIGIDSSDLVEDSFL
Experimental: as §1

SHP2 = test: Western analysis with site and phosphorylation-specific antibodies, SHP2; type: cell-based, human; conditions: H1703 cells, 1 μM for 3 hours, western (FIG. 9E)
Experimental: as §1

PLCγ1 = test: Western analysis with site and phosphorylation-specific antibodies, PLCγ1; type: cell-based, human; conditions: H1703 cells, 1 μM for 3 hours, western (FIG. 9E)
Experimental: as §1

[1] = system: phosphotyrosine signaling in H1703 cells; test: SILAC LC-MS/MS phosphotyrosine analysis of H1703 cells; type: cell-based, human; conditions: 1 μM Gleevec for 3 hours
Text: We performed phosphopeptide immunoprecipitation from different cell lines as described previously (Rush, J., Moritz, A., Lee, K. A., Guo, A., Goss, V. L., Spek, E. J., Zhang, H., Zha, X. M., Polakiewicz, R. D., and Comb, M. J. (2005). Immunoaffinity profiling of tyrosine phosphorylation in cancer cells. Nat. Biotechnol. 23, 94-101) using the PhosphoScan Kit (P-Tyr-100) from CST.
We split equal number of H1703 cells and grew them in either light or heavy SILAC medium (RPMI medium lacking arginine and lysine supplemented with either regular L-Lysine:HCl and L-Arginine:HCL (Sigma) for light medium, or supplemented with L-arginine:HCl (U-13 C6,98%) and L-lysine:2HCl (U-13C6,98%; U-15N2,98%) (Cambridge Isotope Laboratories) for heavy medium. The medium also contained 10% FBS, and penicillin/streptomycin. We grew cells for at least five generations to reach 100 million cells in each medium type. We then treated cells grown in the heavy medium with 1 μM Gleevec for 3 hours. We lysed both treated and control cells in Urea lysis buffer and combined them for phosphopeptide immunoprecipitation experiment as described above.
We LC-MS analyzed each phosphopeptide sample in duplicate. We packed a fused silica microcapillary column (125 μm×18 cm) with C18 reverse-phase resin (Magic C18AQ, 5 μm particles, 200 Å pore size, Michrom Bioresources, Auburn, Calif.). We loaded samples (4 μL) onto this column with an autosampler (LC Packings Famos, San Francisco, Calif.) and eluted them into the mass spectrometer by a 55-min linear gradient of 7 to 30% acetonitrile in 0.1% formic acid. We delivered the gradient at approximately 600 nl/min using a binary HPLC pump (Agilent 1100, Palo Alto, Calif.) with an in-line flow splitter. We mass analyzed eluting peptide ions with a hybrid linear ion trap-7 Tesla ion cyclotron resonance Fourier transform instrument (LTQ-FT, Thermo Electron, San Jose, Calif.). We employed a top-seven method, whereby we collected 7 data-dependent MS/MS scans in the linear ion trap based on measurements made during the previous MS survey scan in the ICR cell, with the linear ion trap and the Fourier transform instrument operating concurrently. We performed MS scans at 375-1800 m/z with an automatic gain control (AGC) target of 3×10^6 and a mass resolution of 10^5. For MS/MS the AGC was 4000, the dynamic exclusion time was 25 s, and singly-charged ions were rejected by charge-state screening.
We assigned peptide sequences to MS/MS spectra using Sequest software (v.27, rev.12) and a composite forward/reverse IPI human protein database. Search parameters were: trypsin as protease; 1.08 Da precursor mass tolerance; static modification on cysteine (+57.02146, carboxamidomethylation); and dynamic modifications on serine, threonine and tyrosine (+79.96633 Da, phosphorylation), lysine (+8.01420, ^13C6 ^15N2), arginine (+6.02013, ^13C6) and methionine (+15.99491, oxidation). We used a target/decoy database approach to establish appropriate score-filtering criteria such that the estimated false-positive assignment rate was <1%. In addition to exceeding charge-dependent XCorr thresholds (for z=2, XCorr≧2.2; for z=3, XCorr≧3.3; for z=4, XCorr≧3.5), we required assignments to contain phosphotyrosine, to have a mass accuracy of −5 to +25 ppm, and to contain either all-light or all-heavy lysine/arginine residues. We further evaluated assignments passing these criteria using a custom quantification program Vista (Bakalarski, C. E., Elias, J. E., Villen, J. Haas, W., Gerber, S. A., Everley, P. A., and Gygi, S. P. (2008) The Impact of Peptide Abundance and Dynamic Range on Stable-Isotope-Based Quantitative Proteomic Analyses. J. Proteome Res. 10.1021/pr800333e) to calculate peak areas and ultimately a relative abundance between heavy and light forms of each peptide.

H1703 cells = test: Cell growth inhibition assay (MTT/MTS), H1703; type: cell-based, human; conditions: 72 hr (FIG. 5C)
Experimental: Briefly, we seeded 1000 to 5000 cells onto flat-bottomed 96-well plates and grew them in complete medium with 10% FBS. After 24 hours, we changed the cell medium to 100 μl complete growth medium with 10% FBS containing various concentrations of Gleevec, and incubated the cells for an additional 72 hours. We applied each drug concentration to triplicate well of cells. At the end of the incubation, we added 20 μl of CellTiter 96 AQUESOUS One solution to each well, and incubated the plate for 1-4 hours. We read absorbance at 490 nm using a Titan Multiskan Ascent microplate reader (Titertek Instrument). We expressed growth inhibition as mean±SD value of percentage of absorbance reading from treated cells vs untreated cells. We repeated the assay at least three times. We calculated IC50 with the use of OriginPro 6.1 software (OriginLab, Northampton, Mass.).

Stat3 = test: Western analysis with site and phosphorylation-specific antibodies, Stat3; type: cell-based, human; conditions: H1703 cells, 1 μM for 3 hours, western (FIG. 9E)
Experimental: as §1

A549 cells = conditions: previous report (Zhang et al. 2003); cited from earlier work
p44/42MAPK = test: Western blot of p44/42MAPK phosphorylation in H1703 cells; type: cell-based, human; conditions: 100 nM Imatinib, 1 hour (FIG. 9B)
Experimental: as §1

H1703 xenograft = test: H1703 mouse xenograft; type: in vivo, NCR nude mice
Experimental: We purchased four to six weeks female NCR nude mice from Taconic ande used them to generate H1703 xenograft. We carried out experiments under an IACUC approved protocol. We followed institutional guidelines for the proper and humane use of animals in research. We generated tumors by injecting 10 mice with 5×10^6H1703 cells and reconstituted basement membrane Matrigel (BD Biosciences) with 1:1 ratio in PBS. Drug treatment started when the tumor was about 1 mm×1 mm size. 5 mice were treated with Gleevec at 50 mg/kg/day by oral gavage using a ball ended feeding needle. 5 mice were untreated. […] We measured the average tumor diameter using caliper in both control and treated groups of mice.

[2] = 100 nM Imatinib, 1 hour (FIG. 9B)
[3] = indicated amounts of Imatinib mesylate, 1 hour (FIG. 9B)

With `COc1cc2ncnc(Nc3ccc(F)c(Cl)c3)c2cc1OCCCN1CCOCC1` [Gefitinib] the “phosphorylation of Akt at Ser473” value (Akt (Ser473)) was “not by Gefitinib”.
With `Cc1ccc(NC(=O)c2ccc(CN3CCN(C)CC3)cc2)cc1Nc1nccc(-c2cccnc2)n1` [Imatinib] the Akt phosphorylation (Akt (Ser473); [2]) was “almost complete inhibition”, the “Akt phosphorylation (Ser473)” value (Akt (Ser473); [3]) was “dose-dependent inhibition” and the “phosphorylation of Akt at Ser473” value (Akt (Ser473)) was “blocked”. The PDGFRα phosphorylation (PDGFRα; [2]) was “almost complete inhibition”, the “phosphorylation of PDGFRα” value (PDGFRα; 1 μM for 3 hours, western (FIG. 9E)) was “decreased phosphorylation” and the “PDGFR α phosphorylation (Tyr754)” value (PDGFRα; [3]) was “dose-dependent inhibition”. For the same compound, the “phosphorylation of SHP2” value (SHP2) was “decreased phosphorylation”, the “phosphorylation of PLCγ1” value (PLCγ1) was “decreased phosphorylation” and the “phosphorylation of SMS2” value [1] was “inhibited phosphorylation”. For the same compound, the “phosphorylation of the ras effector Rinl” value [1] was “inhibited phosphorylation”, the “tyrosine phosphorylation of SHP-2” value [1] was “suppressed tyrosine phosphorylation” and the “tyrosine phosphorylation of Stat5” value [1] was “suppressed tyrosine phosphorylation”. For the same compound, the “tyrosine phosphorylation of phospholipase Cg 1” value [1] was “suppressed tyrosine phosphorylation”, the “tyrosine phosphorylation of proteins regulating the cytoskeleton and actin reorganization and signaling molecules involved in membrane recycling and endocytosis” value [1] was “suppressed” and the “tyrosine phosphorylation of the regulatory subunit of PI3K” value [1] was “suppressed tyrosine phosphorylation”. The “cell growth / sensitivity to Imatinib” value (H1703 cells) was “sensitivity profile similar to K562 cells”, the “cell growth / sensitivity to Imatinib” value (H1703 cells; listed as Imatinib mesylate) was “inhibits cell growth” and the “phosphorylation of Stat3” value (Stat3) was “not changed”. The “sensitivity to Imatinib” value (A549 cells) was “showed sensitivity”, the p44/42MAPK phosphorylation (p44/42MAPK) was “little if any effect” and the tumor growth (H1703 xenograft; H1703 xenograft in nude mice, 50 mg/kg daily, 2 week period, vs vehicle) was “immediate and profound effects on tumor growth”. The tumor growth (H1703 xenograft; H1703 xenograft, after 7 days of Imatinib treatment at 50 mg/kg (FIG. 9F)) was “blocks tumor growth”.
